The source of these data is publication PMC8041284, “Tunable Methacrylamides for Covalent Ligand Directed Release Chemistry” (Journal of the American Chemical Society, 2021).

Where a SMILES comes first, the peptide text is derived from it. The star is where a group is joined. Cbz = O=C(OCc1ccccc1)*; CH2F = FC*

Sequence of BTK (Q06187 402-655 limits assumed): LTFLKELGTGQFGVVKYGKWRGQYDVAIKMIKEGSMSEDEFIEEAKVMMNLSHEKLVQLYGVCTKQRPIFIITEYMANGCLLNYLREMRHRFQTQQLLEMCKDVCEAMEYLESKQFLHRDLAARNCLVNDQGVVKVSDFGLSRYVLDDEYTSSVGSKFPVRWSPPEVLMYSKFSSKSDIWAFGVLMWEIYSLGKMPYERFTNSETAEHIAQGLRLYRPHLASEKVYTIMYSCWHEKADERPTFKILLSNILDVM

The first test concerns the target BTK (Homo sapiens, UniProt Q06187). Description: biochemical. The settings on record: read-out: BTK inhibition (%).
The inhibition is the drop in the measured response relative to a control, in per cent. Consider `CCN1C[C@]2(COC)CC[C@H](OC)[C@]34C1[C@H](C[C@H]23)[C@@]1(O)C[C@H](OC)[C@H]2C[C@@H]4[C@@H]1[C@H]2O` [PCM-0216478], for which the inhibition at 10 µM came out at 10.8%.

The same test, now with this note: read-out: BTK inhibition (%), 0.75 uM BTK, […] probe 3l, 15 min preincubation.
As to `Nc1nccc(Oc2ccc(NC(=O)c3c[nH]cc(-c4ccc(F)cc4)c3=O)cc2F)c1Cl` [PCM-0095240], the inhibition at 10 µM was 68.3%. On the same count and under the same terms, the same measure for `Clc1ccc(CCC(Cn2ccnc2)Sc2c(Cl)cccc2Cl)cc1` (centres unmarked) [PCM-0085946]: 37.4%. Consider `O=C(O)c1ccccc1O` [PCM-0090179], for which the inhibition at 10 µM was -16.3%. In the case of `O=C1C[C@@H](c2ccc(O)cc2)Oc2cc(O)ccc21` [PCM-0214979], the inhibition at 10 µM is -9.3%. Consider `OC[C@@H](O)[C@H](O)[C@H](O)[C@@H](O)CO` [PCM-0215034], for which the inhibition at 10 µM is -10.1%. On to `CC(=O)c1ccccc1` [PCM-0216190], for which the inhibition at 10 µM was 3.1%. On to `CC(C)c1cc(-c2n[nH]c(=O)n2-c2ccc3c(ccn3C)c2)c(O)cc1O` [PCM-0094991], for which the inhibition at 10 µM is 12.4%. Turning to `Nc1ccn(C[C@@H](CO)OCP(=O)(O)O)c(=O)n1` [PCM-0095189], the inhibition at 10 µM is -12.8%. On the same count and under the same terms, under `Cc1cnc(-c2ccccc2C(C)C)nc1NCc1ccc(-n2ccnn2)cc1` [PCM-0095782] stands 3.9%; under `C[C@@]1(F)[C@H](O)[C@@H](CO)O[C@H]1n1ccc(=O)[nH]c1=O` [PCM-0216055], -20%; under `COc1cc(N2CCC(N3CCN(C)CC3)CC2)ccc1Nc1ncc(Cl)c(Nc2ccccc2S(=O)(=O)C(C)C)n1` [PCM-0094890], 88.5%. For `O=C(Oc1cccc(F)c1OC(=O)c1cccc(O)c1)c1cccc(O)c1` [PCM-0215618], the inhibition at 10 µM was -5.4%.

On to `NC(=S)N/N=C/c1ncccc1N` [PCM-0095816], for which the inhibition at 10 µM is -1.5%. The same measure, in the same setting: under `CS(=O)(=O)c1ccc(-c2cnc(N)c(C(=O)Nc3ccccc3)n2)cc1` [PCM-0095599] stands 10.3%; under `CC(=O)CC/C=C(\C)CC/C=C(\C)CC/C=C(\C)CCC=C(C)C` [PCM-0215116], 2.3%. Still for that read-out and setting: the same measure for `CC12CC3CC(C)(C1)CC(N)(C3)C2` [PCM-0064948]: 7.8%. `O=c1cc(-c2ccc(O)cc2)oc2c([C@@H]3O[C@H](CO)[C@@H](O)[C@H](O)[C@H]3O)c(O)cc(O)c12` [PCM-0216454]: the inhibition at 10 µM amounted to 26.3%. Consider `Cc1nnc(C(=O)NC(C)(C)c2nc(C(=O)NCc3ccc(F)cc3)c(O)c(=O)n2C)o1` [PCM-0095277], for which the inhibition at 10 µM came out at 4.7%. As for `Cc1ccccc1C(C(=O)NC1CCCCC1)N(C(=O)Cn1ccnc1C)c1cccc(F)c1` (centres unmarked) [PCM-0215210], the inhibition at 10 µM was -6.9%. For the compound `N=C(N=C(N)N)N1CCOCC1` [PCM-0085762], the inhibition at 10 µM was -3.1%. As for `Nc1ncn([C@H]2C[C@H](O)[C@@H](CO)O2)c(=O)n1` [PCM-0094900], the inhibition at 10 µM was 11%. As to `O=C1C2CCN(CC2)C1(CO)CO` [PCM-0215683], the inhibition at 10 µM was found to be 0.8%.

In the case of `COc1ccc(-c2coc3cc(O)cc(O)c3c2=O)cc1` [PCM-0086643], the inhibition at 10 µM amounted to 2.3%. On the same count and under the same terms, the same measure for `C[C@@H](Nc1nc(N[C@H](C)C(F)(F)F)nc(-c2cccc(Cl)n2)n1)C(F)(F)F` [PCM-0215864]: -3.9%. For `CC(C)Oc1ccc(C(=O)N[C@H](CNC(=O)CN(C)C)Cc2ccc(-c3cn4cccc([C@H](C)O)c4n3)cc2)cc1Cl` [PCM-0215312], the inhibition at 10 µM is -30.9%. Consider `CCCCNc1ncc(C(=O)NCc2ccc(-n3ccnc3)cc2)c(NC2CCC(O)CC2)n1` (centres unmarked) [PCM-0215319], for which the inhibition at 10 µM came out at 2.1%. Take `C=C(C)[C@@H]1CC[C@]2(C(=O)O)CC[C@]3(C)[C@H](CC[C@@H]4[C@@]5(C)CC[C@H](OC(=O)CC(C)(C)C(=O)O)C(C)(C)[C@@H]5CC[C@]43C)[C@@H]12` [PCM-0216605]: the inhibition at 10 µM came to 17.8%. On to `c1cnc2cc3c(cc2n1)[C@@H]1CNC[C@H]3C1` [PCM-0064570], for which the inhibition at 10 µM was -31.5%.

Turning to `CCN(C)S(=O)(=O)Nc1ccc(F)c(C(=O)c2c[nH]c3ncc(-c4cnc(C5CC5)nc4)cc23)c1F` [PCM-0215639], the inhibition at 10 µM was determined as 75.9%. For `COc1ccc(-c2cnc3c(-c4cccc5ncccc45)cnn3c2)cc1` [PCM-0215297], the inhibition at 10 µM was -2.3%. The same measure, in the same setting: the same measure for `CN1CCC(=C2c3ccccc3CCn3c(C=O)cnc32)CC1` [PCM-0214821]: 2.1%; for `CC(C)[C@H](NC(=O)OCc1ccccc1)C(=O)N[C@@H](C)C(=O)N[C@@H](CC(=O)O)C(=O)CF` [PCM-0215591] (Cbz-Val-Ala-Asp-CH2F): -5.4%; for `CS(=O)(=O)N1CCN(Cc2cc3nc(-c4cccc5[nH]ncc45)nc(N4CCOCC4)c3s2)CC1` [PCM-0094994]: -15.9%. Regarding `COc1cc2c(cc1OC)CN(C(=O)/C=C/c1c(-c3ccccc3)n(C)c3ncccc13)CC2` [PCM-0215686], the inhibition at 10 µM came to 37.8%. Take `CC(=O)Oc1cccc2ccccc12` [PCM-0215066]: the inhibition at 10 µM is -21%.

Take `CC(C)n1c(=O)n(C)c2cnc3cc(F)c(-c4ccc(OCCCN5CCCCC5)nc4)cc3c21` [PCM-0216091]: the inhibition at 10 µM is -13.9%. As for `C[C@H](C[C@H](O)[C@H]1OC1(C)C)C1=C2C[C@H](O)[C@H]3[C@@]4(C)CCC(=O)C(C)(C)[C@@H]4CC[C@]3(C)[C@@]2(C)CC1` [PCM-0216518], the inhibition at 10 µM was -24.7%. Take `C[C@H](CCC(=O)O)[C@H]1CC[C@H]2[C@@H]3[C@H](O)C[C@@H]4C[C@H](O)CC[C@]4(C)[C@H]3CC[C@]12C` [PCM-0214654]: the inhibition at 10 µM was determined as 6.2%.

As for `O=C(O)c1ccco1` [PCM-0215122], the inhibition at 10 µM is -21.8%. Consider `NC(N)=NCCC[C@H](N)C(=O)O` [PCM-0215193], for which the inhibition at 10 µM came to 2.6%. Take `CC(C)NCC(O)c1ccccc1Cl` (centres unmarked) [PCM-0214757]: the inhibition at 10 µM stood at 10.9%. On to `C#CC[C@H](c1nc2cc(Cl)ccc2c(=O)n1Nc1ccccc1)N(CCCN)C(=O)c1cccc(Cl)c1F` [PCM-0095802], for which the inhibition at 10 µM came out at 52.5%.

As to `NC(N)=N/N=C/c1c(Cl)cccc1Cl` [PCM-0065199], the inhibition at 10 µM is -2.3%. As to `O=C(/C=C/c1ccc(O[C@@H]2O[C@H](CO)[C@@H](O)[C@H](O)[C@H]2O)cc1)c1ccc(O)cc1O` [PCM-0216527], the inhibition at 10 µM amounted to 19.3%. As for `O=C(NCC1(c2nc(-c3ccccc3)cs2)CCOCC1)c1cccc(-c2noc(C(F)(F)F)n2)c1` [PCM-0215333], the inhibition at 10 µM was -9.3%. Take `CNS(=O)(=O)Nc1nccc(Cc2c(C)c3ccc(Oc4ncccn4)cc3oc2=O)c1F` [PCM-0215552]: the inhibition at 10 µM is 17.9%.

`CC(C)CCNC(=O)[C@H](CC(C)C)NC(=O)[C@H]1O[C@@H]1C(=O)O` [PCM-0215302]: the inhibition at 10 µM was -16.2%. In the case of `Cc1ccc(S(=O)(=O)/C=C/C#N)cc1` [PCM-0065564], the inhibition at 10 µM is -12.4%. `CC(C)CCn1c(CN2CCN(C(=O)C3CC3)CC2)nc2c1c(=O)n(C)c(=O)n2C` [PCM-0215566]: the inhibition at 10 µM is -13.9%.

As to `O=C(Nc1ccc(OC(F)(F)F)cc1)c1sccc1NCc1ccnc2ccccc12` [PCM-0094951], the inhibition at 10 µM is 90.3%. Same read-out and setting: under `O=P(O)(O)OC1C(OP(=O)(O)O)C(OP(=O)(O)O)C(OP(=O)(O)O)C(OP(=O)(O)O)C1OP(=O)(O)O` (centres unmarked) [PCM-0215940] stands 21.3%; under `C[C@H](Cn1cnc2c(N)ncnc21)OCP(=O)(O)O` [PCM-0090661], -11.7%; under `C[Si](C)(C)CCOCn1ccc2c(-c3cn[nH]c3)ncnc21` [PCM-0216552], -40.9%.

With `COCCCc1sc(-c2ccccc2)nc1C(=O)Nc1ccccc1-c1nc2cc(CN3CCCC3)cnc2s1` [PCM-0215812], the inhibition at 10 µM turned out to be 57.9%. For `Nc1nc(NC2CC2)cc(-c2cccc(Cl)c2Cl)n1` [PCM-0215420], the inhibition at 10 µM worked out at 28.6%. Consider `CC(=O)Oc1cc2c(s1)CCN(C(C(=O)C1CC1)c1ccccc1F)C2` (centres unmarked) [PCM-0095029], for which the inhibition at 10 µM was -2.3%. Regarding `CC(C)C[C@H](CC(=O)NO)C(=O)N[C@@H](Cc1ccc2ccccc2c1)C(=O)N[C@@H](C)C(=O)NCCN` [PCM-0215328], the inhibition at 10 µM was 18.6%. On to `C/C=C/C=C/C(=O)O` [PCM-0215158], for which the inhibition at 10 µM is 0%. Regarding `CO[C@H]1/C=C/O[C@@]2(C)Oc3c(C)c(O)c4c(O)c(c5c(nc6cc(C)ccn65)c4c3C2=O)NC(=O)/C(C)=C\C=C\[C@H](C)[C@H](O)[C@@H](C)[C@@H](O)[C@@H](C)[C@H](OC(C)=O)[C@@H]1C` [PCM-0086183], the inhibition at 10 µM was determined as 10.1%. With `CC1(C)CC[C@]2(C(=O)O)CC[C@]3(C)C(=CC[C@@H]4[C@@]5(C)C[C@@H](O)[C@H](O)C(C)(C)[C@@H]5CC[C@]43C)[C@@H]2C1` [PCM-0216611], the inhibition at 10 µM was found to be 20.1%. The same measure, in the same setting: the same measure for `CN1CCC(=C2c3ccccc3CCc3cccnc32)CC1` [PCM-0090351]: -2.8%. Same read-out and setting: under `CC(C)C[C@H](NC(=O)[C@H](Cc1ccccc1)C[C@@H](O)[C@H](Cc1ccccc1)NC(=O)OC(C)(C)C)C(=O)N[C@@H](Cc1ccccc1)C(N)=O` [PCM-0215547] stands 5.4%. Consider `Cc1cc(/C(O)=C2\C(=O)C(=O)N(CCCN3CCOCC3)C2c2ccncc2)ccc1OCc1ccccc1` (centres unmarked) [PCM-0215180], for which the inhibition at 10 µM worked out at 0%. For the compound `Nc1nc(Nc2ccc(S(N)(=O)=O)cc2)nn1C(=O)c1c(F)cccc1F` [PCM-0095002], the inhibition at 10 µM was determined as 84.1%.

As for `CCCCCCCCCCCCCCCc1cccc(O)c1C(=O)O` [PCM-0215370], the inhibition at 10 µM was -19.3%. With `CCCN1C[C@H](CSC)C[C@@H]2c3cccc4[nH]cc(c34)C[C@H]21` [PCM-0065439], the inhibition at 10 µM is -1.6%. With `CC(=O)O[C@@]12CO[C@@H]1C[C@H](O)[C@@]1(C)C(=O)[C@H](O)C3=C(C)[C@@H](OC(=O)[C@H](O)[C@@H](NC(=O)c4ccccc4)c4ccccc4)C[C@@](O)([C@@H](OC(=O)c4ccccc4)[C@H]21)C3(C)C` [PCM-0214981], the inhibition at 10 µM is 9.3%.
